Experimental data taken from patent US11485742B2, “2-azaspiro[3.4]octane derivatives as M4 agonists” (NOVARTIS AG, priority 2019, dated 2022).

Key:
[1] = molecular target: T1, human cloned CHRM4 receptor (Homo sapiens, UniProt P08173); assay: CHRM4 Ca++ Flux Assay (M4_CHO cells, agonist mode); format: cell-based; settings: for Emax: Percent Activity (PA), read-out: M4 FDSS PA %; for EC50: geometric mean if tested more than once, read-out: M4 FDSS EC50
T1 construct: expressed in transfected cells; host or cells: CHO-K1 (M4_CHO)
T1 sequence (P08173 1-479): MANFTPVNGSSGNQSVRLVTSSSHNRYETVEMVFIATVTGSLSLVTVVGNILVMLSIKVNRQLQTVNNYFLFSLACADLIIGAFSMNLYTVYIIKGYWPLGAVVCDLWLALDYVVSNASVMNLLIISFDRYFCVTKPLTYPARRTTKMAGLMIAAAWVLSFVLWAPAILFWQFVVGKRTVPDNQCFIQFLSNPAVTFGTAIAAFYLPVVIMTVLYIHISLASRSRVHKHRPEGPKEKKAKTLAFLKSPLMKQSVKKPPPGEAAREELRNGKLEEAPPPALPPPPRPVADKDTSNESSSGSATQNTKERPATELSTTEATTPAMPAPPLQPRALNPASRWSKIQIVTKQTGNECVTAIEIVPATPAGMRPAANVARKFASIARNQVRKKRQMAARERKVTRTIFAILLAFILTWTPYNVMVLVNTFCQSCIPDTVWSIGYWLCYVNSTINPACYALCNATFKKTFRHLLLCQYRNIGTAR
In short: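 Agonist-mode calcium flux in an M4-expressing CHO-K1 line: compounds were dosed at 11 points in triplicate and fluorescence was tracked for 3 min. Cells were preloaded with Ca++ dye and kept in −Ca/−Mg HBSS with 20 μM ATP for 60 min. Efficacy is scaled to carbachol EC100; EC50s come from four-parameter regression, geometric mean across runs.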

[2] = molecular target: T2, human cloned CHRM3 receptor (Homo sapiens, UniProt P20309); assay: CHRM3 Ca++ Flux Assay (M3_CHO cells, agonist mode); format: cell-based; settings: for Emax: Percent Activity (PA) measured to EC100 of Carbachol, read-out: M3 FDSS PA %; for EC50: agonist mode, geometric mean if tested more than once, read-out: M3 FDSS EC50
T2 construct: expressed in transfected cells; host or cells: CHO-K1 (M3_CHO)
T2 sequence (P20309 whole entry): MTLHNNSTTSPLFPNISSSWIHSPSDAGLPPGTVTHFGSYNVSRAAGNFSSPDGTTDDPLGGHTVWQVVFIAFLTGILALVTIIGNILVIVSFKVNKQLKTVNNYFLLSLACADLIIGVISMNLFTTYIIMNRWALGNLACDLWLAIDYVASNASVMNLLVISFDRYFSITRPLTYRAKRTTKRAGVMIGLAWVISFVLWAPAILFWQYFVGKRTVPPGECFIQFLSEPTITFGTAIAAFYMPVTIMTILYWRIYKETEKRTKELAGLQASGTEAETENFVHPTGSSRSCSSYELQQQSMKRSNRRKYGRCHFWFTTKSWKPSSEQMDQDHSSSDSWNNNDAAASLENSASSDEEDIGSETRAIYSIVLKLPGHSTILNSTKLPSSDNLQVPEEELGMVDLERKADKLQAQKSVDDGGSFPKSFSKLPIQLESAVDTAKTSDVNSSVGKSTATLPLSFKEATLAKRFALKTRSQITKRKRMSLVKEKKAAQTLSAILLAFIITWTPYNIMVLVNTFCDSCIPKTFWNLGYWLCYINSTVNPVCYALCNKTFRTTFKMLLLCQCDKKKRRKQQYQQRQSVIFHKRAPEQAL
In short: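 Agonist-mode calcium mobilisation: compounds, 11 concentrations in triplicate, applied to stable M3_CHO or M5_CHO cells loaded with Ca++ dye, fluorescence followed 3 min. Efficacy expressed against carbachol EC100; EC curves by four-parameter nonlinear regression, geometric mean across independent runs.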

Compound: Fc1ccc(OCC2COC2)c(C2CCN([C@@H]3COC4(C3)CN(c3nnco3)C4)CC2)c1 [Example 2H, (S)-7-(4-(5-fluoro-2-(oxetan-3-ylmethoxy)phenyl)piperidin-1-yl)-2-(1,3,4-oxadiazol-2-yl)-5-oxa-2-azaspiro[3.4]octane]
- Emax [1]: 88%
- EC50 [1]: 6 nM
- Emax [2]: 0%
- EC50 [2]: > 25000 nM

Compound: COc1cc(F)ccc1C1CCN([C@@H]2COC3(C2)CN(c2nnco2)C3)CC1 [Example 1S, (S)-7-(4-(4-fluoro-2-methoxyphenyl)piperidin-1-yl)-2-(1,3,4-oxadiazol-2-yl)-5-oxa-2-azaspiro[3.4]octane]
- Emax [1]: 68%
- EC50 [1]: 79 nM
- Emax [2]: 0%
- EC50 [2]: > 25000 nM

Compound: COc1ccc(F)cc1C1CCN([C@@H]2COC3(C2)CN(c2nnco2)C3)CC1 [Example 1V, (S)-7-(4-(5-fluoro-2-methoxyphenyl)piperidin-1-yl)-2-(1,3,4-oxadiazol-2-yl)-5-oxa-2-azaspiro[3.4]octane]
- Emax [1]: 83%
- EC50 [1]: 35 nM
- Emax [2]: 0%
- EC50 [2]: > 25000 nM

Compound: Fc1ccc(OCC2(F)COC2)c(C2CCN([C@@H]3COC4(C3)CN(c3nnco3)C4)CC2)c1 [Example 2J, (S)-7-(4-(5-fluoro-2-((3-fluorooxetan-3-yl)methoxy)phenyl)piperidin-1-yl)-2-(1,3,4-oxadiazol-2-yl)-5-oxa-2-azaspiro[3.4]octane]
- Emax [1]: 90%
- EC50 [1]: 12 nM
- Emax [2]: 0%
- EC50 [2]: > 25000 nM

Compound: CC1(COc2ccc(F)cc2C2CCN([C@@H]3COC4(C3)CN(c3nnco3)C4)CC2)COC1 [Example 2K, (S)-7-(4-(5-fluoro-2-((3-methyloxetan-3-yl)methoxy)phenyl)piperidin-1-yl)-2-(1,3,4-oxadiazol-2-yl)-5-oxa-2-azaspiro[3.4]octane]
- Emax [1]: 82%
- EC50 [1]: 18 nM
- Emax [2]: 0%
- EC50 [2]: > 25000 nM

Compound: Fc1ccc(OC2CC3(COC3)C2)c(C2CCN([C@H]3COC4(C3)CN(c3nnco3)C4)CC2)c1 [Example 7A, (R)-7-(4-(2-((2-oxaspiro[3.3]heptan-6-yl)oxy)-5-fluorophenyl)piperidin-1-yl)-2-(1,3,4-oxadiazol-2-yl)-5-oxa-2-azaspiro[3.4]octane]
- Emax [1]: 42%
- EC50 [1]: 1410 nM
- Emax [2]: 0%
- EC50 [2]: > 25000 nM

Compound: CC(C)(O)CCOc1ccc(F)cc1C1CCN([C@@H]2COC3(C2)CN(c2nnco2)C3)CC1 [Example 1N, (S)-4-(2-(1-(2-(1,3,4-oxadiazol-2-yl)-5-oxa-2-azaspiro[3.4]octan-7-yl)piperidin-4-yl)-4-fluorophenoxy)-2-methylbutan-2-ol]
- Emax [1]: 63%
- EC50 [1]: 133 nM
- Emax [2]: 0%
- EC50 [2]: > 25000 nM

Compound: Fc1ccc(OCC2CCOCC2)c(C2CCN([C@@H]3COC4(C3)CN(c3nnco3)C4)CC2)c1 [Example 1J, (S)-7-(4-(5-fluoro-2-((tetrahydro-2H-pyran-4-yl)methoxy)phenyl)piperidin-1-yl)-2-(1,3,4-oxadiazol-2-yl)-5-oxa-2-azaspiro[3.4]octane]
- Emax [1]: 79%
- EC50 [1]: 86 nM
- Emax [2]: 0%
- EC50 [2]: > 25000 nM

Compound: Cc1nnc(COc2ccc(F)cc2C2CCN([C@@H]3COC4(C3)CN(c3nnco3)C4)CC2)s1 [Example 2E, (S)-7-(4-(5-fluoro-2-((5-methyl-1,3,4-thiadiazol-2-yl)methoxy)phenyl)piperidin-1-yl)-2-(1,3,4-oxadiazol-2-yl)-5-oxa-2-azaspiro[3.4]octane]
- Emax [1]: 85%
- EC50 [1]: 1 nM
- Emax [2]: 0%
- EC50 [2]: > 25000 nM

Compound: Fc1ccc(OC2CC3(COC3)C2)c(C2CCN([C@@H]3COC4(C3)CN(c3ncon3)C4)CC2)c1 [Example 6C, (S)-7-(4-(2-((2-oxaspiro[3.3]heptan-6-yl)oxy)-5-fluorophenyl)piperidin-1-yl)-2-(1,2,4-oxadiazol-3-yl)-5-oxa-2-azaspiro[3.4]octane]
- Emax [1]: 74%
- EC50 [1]: 44 nM
- Emax [2]: 0%
- EC50 [2]: > 25000 nM

Compound: Fc1ccc(OC2CC3(COC3)C2)c(C2CCN([C@@H]3COC4(C3)CN(c3nnco3)C4)CC2)c1 [Example 2L, (S)-7-(4-(2-((2-oxaspiro[3.3]heptan-6-yl)oxy)-5-fluorophenyl)piperidin-1-yl)-2-(1,3,4-oxadiazol-2-yl)-5-oxa-2-azaspiro[3.4]octane]
- Emax [1]: 81%
- EC50 [1]: 50 nM
- Emax [2]: 0%
- EC50 [2]: > 25000 nM

Compound: Fc1ccc(OC2COCOC2)c(C2CCN([C@@H]3COC4(C3)CN(c3nnco3)C4)CC2)c1 [Example 1M, (S)-7-(4-(2-((1,3-dioxan-5-yl)oxy)-5-fluorophenyl)piperidin-1-yl)-2-(1,3,4-oxadiazol-2-yl)-5-oxa-2-azaspiro[3.4]octane]
- Emax [1]: 79%
- EC50 [1]: 94 nM
- Emax [2]: 0%
- EC50 [2]: > 25000 nM

Compound: Fc1ccc(OC2CCOCC2)c(C2CCN([C@@H]3COC4(C3)CN(c3ncon3)C4)CC2)c1 [Example 6A, (S)-7-(4-(5-fluoro-2-((tetrahydro-2H-pyran-4-yl)oxy)phenyl)piperidin-1-yl)-2-(1,2,4-oxadiazol-3-yl)-5-oxa-2-azaspiro[3.4]octane]
- Emax [1]: 74%
- EC50 [1]: 12 nM
- Emax [2]: 0%
- EC50 [2]: > 25000 nM

Compound: COCCOc1ccc(F)cc1C1CCN([C@@H]2COC3(C2)CN(c2nnco2)C3)CC1 [Example 1L, (S)-7-(4-(5-fluoro-2-(2-methoxyethoxy)phenyl)piperidin-1-yl)-2-(1,3,4-oxadiazol-2-yl)-5-oxa-2-azaspiro[3.4]octane]
- Emax [1]: 74%
- EC50 [1]: 99 nM
- Emax [2]: 0%
- EC50 [2]: > 25000 nM

Compound: Fc1ccc(OC[C@H]2CCCO2)c(C2CCN([C@@H]3COC4(C3)CN(c3nnco3)C4)CC2)c1 [Example 2M, (S)-7-(4-(5-fluoro-2-(((R)-tetrahydrofuran-2-yl)methoxy)phenyl)piperidin-1-yl)-2-(1,3,4-oxadiazol-2-yl)-5-oxa-2-azaspiro[3.4]octane]
- Emax [1]: 58%
- EC50 [1]: 145 nM
- Emax [2]: 0%
- EC50 [2]: > 25000 nM

Compound: Fc1ccc(OCC2COC2)c(C2CCN([C@@H]3COC4(C3)CN(c3nncs3)C4)CC2)c1 [Example 2A, (S)-7-(4-(5-fluoro-2-(oxetan-3-ylmethoxy)phenyl)piperidin-1-yl)-2-(1,3,4-thiadiazol-2-yl)-5-oxa-2-azaspiro[3.4]octane]
- Emax [1]: 79%
- EC50 [1]: 24 nM
- Emax [2]: 0%
- EC50 [2]: > 25000 nM

Compound: Fc1ccc(OCC2CC3(COC3)C2)c(C2CCN([C@@H]3COC4(C3)CN(c3nnco3)C4)CC2)c1 [Example 2S, (S)-7-(4-(2-((2-oxaspiro[3.3]heptan-6-yl)methoxy)-5-fluorophenyl)piperidin-1-yl)-2-(1,3,4-oxadiazol-2-yl)-5-oxa-2-azaspiro[3.4]octane]
- Emax [1]: 68%
- EC50 [1]: 242 nM
- Emax [2]: 0%
- EC50 [2]: > 25000 nM

Compound: c1ccc(C2CCN([C@@H]3COC4(C3)CN(c3nnco3)C4)CC2)c(-c2ncco2)c1 [Example 1X, (S)-2-(1,3,4-oxadiazol-2-yl)-7-(4-(2-(oxazol-2-yl)phenyl)piperidin-1-yl)-5-oxa-2-azaspiro[3.4]octane]
- Emax [1]: 84%
- EC50 [1]: 112 nM
- Emax [2]: 0%
- EC50 [2]: > 25000 nM

Compound: Cc1nnc(-c2ccccc2C2CCN([C@@H]3COC4(C3)CN(c3nnco3)C4)CC2)o1 [Example 1Y, (S)-7-(4-(2-(5-methyl-1,3,4-oxadiazol-2-yl)phenyl)piperidin-1-yl)-2-(1,3,4-oxadiazol-2-yl)-5-oxa-2-azaspiro[3.4]octane]
- Emax [1]: 86%
- EC50 [1]: 112 nM
- Emax [2]: 0%
- EC50 [2]: > 25000 nM
